Several values for one entry are separate records, joined by “and”; a condition that tells them apart may be missing. Equal values may be shown once.
What was measured:
[1] = tested on: individuals; assay: Measurement of blood flow: Skin Perfusion Pressure (SensiLase System, laser Doppler) on right toe after transdermal CO2 vapor treatment of left thumb; format: in vivo, human; details: for SPP: right toe
Protocol: (§1) The treatment was administered by having an individual insert the left thumb into the open-ended delivery outlet of a device disclosed herein creating a seal. The digit will be “bathed” for five minutes with a vapor including supersaturated dissolved molecular carbon dioxide from a canister providing pure, medical-grade carbon dioxide. Nine individuals were examined.
Tissue perfusion in distal arteries was accessed using a SensiLase System (a FDA-cleared device) and measuring Skin Perfusion Pressure (SPP) and Pulse Volume Recording (PVR). SPP is a pressure measurement in mmHg that assess local blood perfusion in capillaries using a laser Doppler to measure reactive hyperemia, which reflects microcirculation for distal arterial blood flow. PVR is a measurement of plethysmography to assess changes in arterial blood volume. A change in capillary blood flow (CBF) is calculated by determining the change in SPP values over time. For this study, the CBF values of all post-treatment measurements were calculated by dividing the post-treatment SPP value by the pre-treatment SPP value. A measurement of SPP was performed on the individual's right toe at six time points 1) 5 minutes before treatment (pre-treatment); 2) 5 minutes post-treatment; 3) 30 minutes post-treatment; 4) 60 minutes post-treatment; 5) 120 minutes post-treatment; and 6) 240 minutes post-treatment.

[2] = tested on: individuals; assay: Measurement of blood pressure: brachial diastolic and systolic, right upper arm, after transdermal CO2 vapor treatment; format: in vivo, human; parameters: Brachial Systolic / Brachial Diastolic: unit not given here; details: for Brachial Diastolic Percent / Brachial Systolic Percent: percent of pre-treatment; for Brachial Diastolic Percent / Brachial Systolic Percent / Brachial Diastolic / Brachial Systolic: per patient
Protocol: as §1
To conduct this study, individuals from the study described in Example 1 had there blood pressure taken. A measurement of both brachial diastolic blood pressure and systolic blood pressure was performed on the individual's right upper arm at six time points 1) 5 minutes before treatment (pre-treatment); 2) 5 minutes post-treatment; 3) 30 minutes post-treatment; 4) 60 minutes post-treatment; 5) 120 minutes post-treatment; and 6) 240 minutes post-treatment.

[3] = nine individuals, 5-240 min post-treatment
[4] = seven of the nine individuals studied
[5] = Post Treatment (5 min), right upper arm

Q: Which results are given for O=C=O [molecular carbon dioxide, carbon dioxide]?
A: CBF ([1]; Post Treatment (5 min), post-treatment SPP / pre-treatment SPP, per patient): 124% and 104% and 102% and 87% and 117% and 122% and 109% and 113% and 114%; SPP ([1]; Post Treatment (5 min), one value per patient (1-9), 5 min vapor on left thumb): 52 mmHg and 85 mmHg and 84 mmHg and 60 mmHg and 75 mmHg and 89 mmHg and 116 mmHg and 71 mmHg and 132 mmHg; CBF ([1]; Post Treatment (30 min), post/pre-treatment SPP, per patient): 124% and 112% and 109% and 91% and 119% and 92% and 106% and 114%; SPP ([1]; Post Treatment (30 min), per patient): 54 mmHg and 0 mmHg and 92 mmHg and 75 mmHg and 58 mmHg and 87 mmHg and 97 mmHg and 67 mmHg and 142 mmHg; CBF ([1]; Post Treatment (60 min), post/pre-treatment SPP, per patient): 124% (2×) and 102% and 104% and 112% and 84% and 103% and 114% and 134%; SPP ([1]; Post Treatment (60 min), per patient): 54 mmHg (2×) and 84 mmHg and 85 mmHg and 77 mmHg and 75 mmHg and 131 mmHg and 72 mmHg and 156 mmHg; CBF ([1]; Post Treatment (120 min), post/pre-treatment SPP, per patient): 138% and 135% and 109% and 112% and 125% and 129% and 82% and 106% and 119%; SPP ([1]; Post Treatment (120 min), per patient): 58 mmHg and 111 mmHg and 89 mmHg and 77 mmHg and 80 mmHg and 94 mmHg and 87 mmHg and 67 mmHg and 138 mmHg; CBF ([1]; Post Treatment (240 min), post/pre-treatment SPP, per patient): 110% and 120% and 135% and 46% and 95% and 104% and 82% and 103% and 115%; SPP ([1]; Post Treatment (240 min), per patient): 46 mmHg and 98 mmHg and 111 mmHg and 32 mmHg and 61 mmHg and 76 mmHg and 91 mmHg and 65 mmHg and 133 mmHg; increase in capillary blood flow ([1]; four of these (of the seven of nine individuals)): ≥ 35%; effect on blood flow [1, 3]: increases blood flow in all individuals examined at some point during the time period measured; increase in capillary blood flow over baseline [1, 4]: about 25%; duration of increase in capillary blood flow ([1]; six of the nine patients): sustained increases in capillary blood flow over the course of the entire 240 minute study; Brachial Diastolic Percent ([2]; Post Treatment (5 min)): 98% and 100% and 77% (2×) and 113% and 80% (2×) and 89% and 111%; Brachial Systolic Percent ([2]; Post Treatment (5 min)): 92% (2×) and 94% (2×) and 95% and 79% and 98% and 73% and 80%; Brachial Diastolic [2, 5]: 78 and 68 (3×) and 60 (2×) and 72 (2×) and 80; Brachial Systolic [2, 5]: 110 (2×) and 132 and 104 and 98 and 124 and 101 and 112 (2×); Brachial Diastolic ([2]; Post Treatment (30 min)): 70 (3×) and 58 and 62 and 78 and 80 and 52; Brachial Systolic ([2]; Post Treatment (30 min)): 110 and 98 and 100 and 112 (2×) and 118 (3×); Brachial Diastolic Percent ([2]; Post Treatment (30 min)): 88% and 73% and 103% and 87% (2×) and 100% and 67% and 92%; Brachial Systolic Percent ([2]; Post Treatment (30 min)): 92% and 89% and 96% and 80% and 94% and 81% and 84% and 97%; Brachial Diastolic ([2]; Post Treatment (60 min)): 82 and 70 and 78 (2×) and 60 and 68 and 50 and 72 and 62; Brachial Systolic ([2]; Post Treatment (60 min)): 138 and 118 (2×) and 115 and 150 and 106 and 110 (2×) and 128; Brachial Diastolic Percent ([2]; Post Treatment (60 min)): 108% and 97% and 98% and 88% and 87% (2×) and 83% and 90% and 79%; Brachial Systolic Percent ([2]; Post Treatment (60 min)): 99% and 97% and 96% (2×) and 107% and 106% and 79% and 102% and 86%; Brachial Diastolic ([2]; Post Treatment (120 min)): 68 (2×) and 70 (2×) and 60 and 49 and 62 and 65 and 69; Brachial Systolic ([2]; Post Treatment (120 min)): 120 and 128 and 90 and 127 and 102 and 110 and 111 and 116 and 118; Brachial Diastolic Percent ([2]; Post Treatment (120 min)): 89% and 97% and 75% and 72% (2×) and 79% and 117% and 86% and 87%; Brachial Systolic Percent ([2]; Post Treatment (120 min)): 86% (2×) and 105% and 75% and 91% and 93% and 106% and 79% and 92%; Brachial Diastolic ([2]; Post Treatment (240 min)): 70 and 64 and 59 and 80 and 68 and 58 and 62 and 71 and 69; Brachial Systolic ([2]; Post Treatment (240 min)): 118 (2×) and 108 (2×) and 113 and 140 and 112 (2×) and 117; Brachial Diastolic Percent ([2]; Post Treatment (240 min)): 92% and 89% (2×) and 74% and 118% and 87% and 97% and 69% and 88%; Brachial Systolic Percent ([2]; Post Treatment (240 min)): 84% and 89% and 94% (2×) and 100% and 102% and 104% and 80% and 85%; effect on blood pressure [2, 3]: decreased blood pressure in all individuals examined at some point during the time period measured; duration of decrease in diastolic and systolic blood pressure [2, 4]: decreased diastolic and systolic blood pressure over the course of the entire 240 minute study

Source: patent US12390626B2, “Method of producing substances with supersaturated gas, transdermal delivery device thereof, and uses thereof” (Circularity Healthcare, LLC, priority 2012, dated 2025)
